{
  "source": "patent US20200181654A1",
  "about": "“AGLYCONE PRODUCTION PROMOTER” (priority 2016, published 2020)",
  "origin": "cited, not measured here",
  "conditions": "after oral ingestion",
  "data": [
    {"smiles": "O=c1c(-c2ccc(O)cc2)coc2cc(O)ccc12", "note": "[daidzein]", "values": [
      {"measurement": "maximum values of the plasma concentrations of the aglycones, relative to ingestion of the glycosides (daidzin, genistin)", "value": "five times or greater"}
    ]},
    {"smiles": "O=c1c(-c2ccc(O)cc2)coc2cc(O)cc(O)c12", "note": "[genistein]", "values": [
      {"measurement": "maximum values of the plasma concentrations of the aglycones, relative to ingestion of the glycosides (daidzin, genistin)", "value": "five times or greater"}
    ]}
  ]
}
